Results taken from US20260034253A1, “NECTIN-4 MINIPROTEIN CONJUGATES” (Aktis Oncology, Inc., priority 2022, published 2026).
Bridge positions count the residues as written; N and C are the ends. Ends that are not written are not given here. * marks the point of attachment. DOTA = O=C(O)CN1CCN(CC(=O)O)CCN(CC(=O)*)CCN(CC(=O)O)CC1; PEG4 = NCCOCCOCCOCCOCCC(=O)O

How the values were obtained:
human Nectin-4 = target: T1, human Nectin-4 (Homo sapiens, UniProt Q96NY8); experiment: Surface plasmon resonance (Biacore T200) binding to human Nectin-4; settings: human Nectin-4, 1:1 binding model, twenty-five degrees Celsius
T1 sequence (Q96NY8 32-510): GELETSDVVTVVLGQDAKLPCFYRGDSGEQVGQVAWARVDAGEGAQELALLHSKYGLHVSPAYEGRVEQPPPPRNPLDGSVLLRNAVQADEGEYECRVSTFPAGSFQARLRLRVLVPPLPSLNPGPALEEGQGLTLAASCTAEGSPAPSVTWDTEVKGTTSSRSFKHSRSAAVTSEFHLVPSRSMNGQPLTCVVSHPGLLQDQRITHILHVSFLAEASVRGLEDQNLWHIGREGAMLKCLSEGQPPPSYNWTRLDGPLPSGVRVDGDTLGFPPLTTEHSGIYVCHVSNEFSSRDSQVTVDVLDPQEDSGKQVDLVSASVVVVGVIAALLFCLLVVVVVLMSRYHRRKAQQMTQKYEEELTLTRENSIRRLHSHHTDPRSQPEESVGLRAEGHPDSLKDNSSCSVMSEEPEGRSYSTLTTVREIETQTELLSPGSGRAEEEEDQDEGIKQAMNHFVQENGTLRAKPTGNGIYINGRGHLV
Protocol: (§1) Peptide binding affinity to the target protein was measured by SPR using a Biacore T200 instrument. The target protein was covalently coupled to a Biacore chip surface using free amine-coupling chemistry (NHS/EDC) and all uncoupled sites were blocked with ethanolamine. Free peptides were flowed over the target protein surface in increasing concentrations to measure association (KA) and dissociation ([…]) to calculate the equilibrium dissociation constant (KD) using an appropriate binding model (see, e.g., Nikolas Stroth, J Biol Methods. 2016; 3 (1)).
(§2) In all figures (FIGS. 1A, 1B, 2A, and 2B), lines on graphs are labeled from top to bottom, beginning with letter “a,” and the corresponding concentration is noted to the right of the figure, next to the letter designating each line.
Surface plasmon resonance (SPR) analyses were performed using Biacore T200 (GE Healthcare). Target protein (“ligand”) was immobilized to a CM5 Series S sensor chip (Cytiva) using amine-coupling chemistry. Running buffer was 0.05% Surfactant P20 in HEPES buffered saline (HBS-P), pH 7.4 (Cytiva). Immobilization was performed at 25° C. Carboxyl groups in each flow cell were activated using a 1:1 mixture of 0.4 M 1-ethyl-3-(3-dimethylaminopropyl)-carbodiimide in water (EDC) and 0.1 M N-hydroxysuccinimide in water (NHS) for 7 minutes. The ligand was prepared in 10 mM Sodium acetate pH 5 (Cytiva). Pulsatile injections were made to target a specific immobilization level. Any remaining amine-reactive esters on the chip surface were blocked with a 7-minute injection of 1 M ethanolamine, pH 8.5. Three 10-second pulses of 50 mM Sodium hydroxide were then made to remove any unbound ligand. Reference cells were modified using amine coupling chemistry, omitting ligand injection.
Increase in signal (RU) is proportional to an increase in binding events between the analyte and ligand surface. The injection was then stopped, and dissociation was measured. The resulting sensorgram has reference surface and blank injection subtracted prior to curve fitting. Measured association (ka, 1/M^s−1) and dissociation (kd, s^−1) were fit to a 1:1 binding model to calculate an equilibrium dissociation constant, KD(M) for each analyte. Equilibrium binding constants (KD) and binding inhibition constants (Ki) estimated from surface plasmon resonance (SPR) or DELFIA® binding assays for exemplary compounds as set forth in Table 2A.
In this example, affinity for mouse Nectin-4 (FIG. 3A) and human Nectin-4 (FIG. 3B) were measured using a 1:1 binding model at twenty-five degrees Celsius. In both of FIGS. 3A and 3B, lines on graphs were labeled from top to bottom, beginning with letter a, and the corresponding concentration was noted to the right of the figure.

mouse Nectin-4 = target: T2, mouse Nectin-4 (Mus musculus, UniProt Q8R007); experiment: Surface plasmon resonance (Biacore T200) binding to mouse Nectin-4; settings: 1:1 binding model, twenty-five degrees Celsius
T2 sequence (Q8R007 31-508): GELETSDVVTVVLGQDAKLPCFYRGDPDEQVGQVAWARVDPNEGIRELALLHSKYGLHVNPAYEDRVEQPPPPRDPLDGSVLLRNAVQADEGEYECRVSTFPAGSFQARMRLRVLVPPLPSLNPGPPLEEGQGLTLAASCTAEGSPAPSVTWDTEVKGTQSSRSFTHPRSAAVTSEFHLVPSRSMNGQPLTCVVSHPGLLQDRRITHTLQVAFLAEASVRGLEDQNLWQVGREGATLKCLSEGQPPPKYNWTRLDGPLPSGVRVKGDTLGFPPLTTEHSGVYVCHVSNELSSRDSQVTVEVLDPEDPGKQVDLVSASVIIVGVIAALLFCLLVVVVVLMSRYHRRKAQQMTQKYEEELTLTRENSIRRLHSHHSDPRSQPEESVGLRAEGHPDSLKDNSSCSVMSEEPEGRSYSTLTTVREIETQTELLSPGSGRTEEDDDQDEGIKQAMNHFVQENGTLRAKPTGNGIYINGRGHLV
Protocol: as §1, §2
Surface plasmon resonance (SPR) analyses were performed using Biacore T200 (GE Healthcare). Target protein (“ligand”) was immobilized to a CM5 Series S sensor chip (Cytiva) using amine-coupling chemistry. Running buffer was 0.05% Surfactant P20 in HEPES buffered saline (HBS-P), pH 7.4 (Cytiva). Immobilization was performed at 25° C. Carboxyl groups in each flow cell were activated using a 1:1 mixture of 0.4 M 1-ethyl-3-(3-dimethylaminopropyl)-carbodiimide in water (EDC) and 0.1 M N-hydroxysuccinimide in water (NHS) for 7 minutes. The ligand was prepared in 10 mM Sodium acetate pH 5 (Cytiva). Pulsatile injections were made to target a specific immobilization level. Any remaining amine-reactive esters on the chip surface were blocked with a 7-minute injection of 1 M ethanolamine, pH 8.5. […]
Increase in signal (RU) is proportional to an increase in binding events between the analyte and ligand surface. The injection was then stopped, and dissociation was measured. […] Measured association (ka, 1/M^s−1) and dissociation (kd, s^−1) were fit to a 1:1 binding model to calculate an equilibrium dissociation constant, KD(M) for each analyte. […]
In this example, affinity for mouse Nectin-4 (FIG. 3A) and human Nectin-4 (FIG. 3B) were measured using a 1:1 binding model at twenty-five degrees Celsius. […]

in vivo = settings: female, athymic nude, mouse, tumor (HT1376 xenograft), total radioactivity
Protocol: In-111 labeling of miniproteins with MES buffer: In-111 was neutralized with 0.5 M MES buffer pH 5.5. This mixture was added to miniproteins prepared at 2 mg/mL in water with an equivalent amount of 0.5 M MES buffer pH 5.5, in a 1.5 mL Eppendorf vial and heated at 37° C. for 60 minutes. After the reaction, an HPLC sample was taken and an equivalent amount of 10 mM DTPA in 0.1 M ammonium acetate pH 5 was added and incubated for at least 15 minutes. The sample was then used for HPLC analysis.
In-111 labeling of miniproteins with Sodium Acetate buffer: In-111 was neutralized with 0.1 M sodium acetate buffer pH 5. […] After the reaction, an HPLC sample was taken and an equivalent amount of 10 mM DTPA in 0.1 M ammonium acetate pH 5 was added and incubated for at least 15 minutes. The sample was then used for HPLC analysis.
Purification of ^111In-miniproteins: Purification was done on two of the crude reaction mixtures mixed with 10 mM DTPA in 0.1 M ammonium acetate pH 5 and incubated for 15 minutes. A 3 kDa 0.5 mL Amicon filter was used for purification and the filter was spun at 15,000 RCF for 9 minutes. Saline was used as a formulation buffer.
Animals: Female athymic nude mice (6-8 weeks of age) were purchased from Charles River Laboratories and housed according to IACUC guidelines with ad libitum feeding. Biodistribution imaging experiments were performed on both null and tumor bearing athymic nude mice. Tumor xenograft models were generated by inoculating mice subcutaneously with 3×10^6 HT1376 cells, in 200 μL (50:50 PBS/Matrigel) in the right shoulder or right flank. Tumors were monitored for 14 days prior to SPECT/CT imaging dates. Mice with tumor volumes between 150 mm^3 and 250 mm^3 were selected for study inclusion and randomized to treatment arms. An excess of 60% of required imaging study mice were inoculated with tumor cells to ensure enough mice with appropriate tumor ranges were generated.
Animal grouping and Treatment: Animals were monitored for body weight bi-weekly and at the time of experimentation, grouped into groups of n=3. Animals were administered test-agents (TAs) that were prepared as described above. Animals received one of two standard injected dose activates and mass dose injections, depending at which site imaging studies were performed. • Site-1: 350 μCi of activity (^111In) at approximately […] peptide per mouse. • Site-2: 30MBq ([…]) of activity (^111In) at approximately 1 nM ([…]) of total peptide per mouse.
Animal imaging: Animals were sedated using isoflurane gas and imaged in a 3 bed hotel using a NanoScan SPECT/CT scanner. Animals were imaged at timepoints between 10 mins and 72 h post-dosing via SPECT scan, followed by CT scans. Details of the image process and analysis are described in Example 11.
Image Processing: Images were generated as SPECT/CT pair with the SPECT reported in units of activity. Namely, the values assigned to the voxels (volume elements) comprising the SPECT images were in units of μCi. SPECT images were co-registered to the CT scan for anatomical reference, resampled to 0.2 mm^3 voxels, masked to remove the CT background, and cropped to a uniform size prior to analysis.
Estimating tissue uptake: Regions of interest (ROIs) were defined using VivoQuant software. The kidneys and bladder were segmented as fixed volume phantoms and registered using the CT for anatomical reference. Two fixed volume spheres were used to create the liver ROI. Spheres were placed at appropriate anatomical locations based on CT and SPECT signal. Group and individual master spreadsheets were generated which included the volume, activity, and concentration (Activity/Volume) at each time point for each ROI generated. Additionally, plots of activity were generated using Matplotlib based python tools to highlight trends in the data.

Row | Substance | kd (dissociation) (human Nectin-4) | kd (dissociation) (mouse Nectin-4) | Kd (human Nectin-4; read-out: KD) | tissue uptake at 4 h (in vivo)
1 | Ac-CEYDEEFFAGLKRLRGGDICYYIKKKFDKVPDLCIEEILDKLGC-OH (disulfide 1-34, 20-44) [Compound C9] | 0.02271 s⁻¹ | 0.02134 s⁻¹ | – | –
2 | {DOTA-PEG4}-CEYDEEFFAGLKRLRGGDICYYIKKKFDKVPDLCIEEILDKLGC (disulfide 1-34, 20-44) [Compound C12] | 0.01697 s⁻¹ | 0.02625 s⁻¹ | 10.5 nM | –
3 | {DOTA-PEG4}-CEYDEEFFAGLKRLRGGDICYYIKKKFDKVPDLCIEEILDKLGC-OH (disulfide 1-34, 20-44) [Compound C91] | 0.02966 s⁻¹ | 0.02817 s⁻¹ | – | –
4 | {DOTA-PEG4}-CEYDEEFFTALKRLRGGDICYYIQAKFQYLPKLCIEEILDNLGCS (disulfide 1-34, 20-44) [Compound C117] | – | – | – | 2.29 %ID/g
5 | {DOTA-PEG4}-CEYDEEFFTALKRLRGGDICYYIQKAFQYLPGLCIEEILDNLGCS (disulfide 1-34, 20-44) [Compound C121] | – | – | – | 2.03 %ID/g
6 | {DOTA-PEG4}-CEYDEEFFTALSRLRGGDICYYIQQAFQYLPGLCIEEILDNLGCS (disulfide 1-34, 20-44) [Compound C133] | – | – | – | 1.29 %ID/g
7 | {DOTA-PEG4}-CEYDEQFFTALARLRGGDICYYIQEQFATVPGLCIEEILDQLGCS (disulfide 1-34, 20-44) [Compound C129] | – | – | – | 1.77 %ID/g
